Structures are written as SMILES. Inconclusive results are not listed. Calls of active or inactive are those of the source.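 The calls were made as follows: active = valid dose-response fit whose half-maximal growth-inhibiting concentration is at or below a set limit above the top tested dose; inconclusive = flat fit with effect between 30 and 70%, or poor fit; inactive = half-maximal concentration above a set limit.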

One assay is described as follows: antibacterial activity against Clostridioides difficile – 10-point retest, dose response (AID 1259246). Particulars: Clostridioides difficile clinical isolate growth, OD600, 24 h; at 60 µM (top of the series).
In the case of `N#C[C@@H]1[C@@H](c2ccc(C#Cc3ccccc3F)cc2)[C@H](CO)N1C(=O)C1CCCCC1`, the activity change, negative = inhibition is 9.57% (inactive).

As for `COc1ccc(CNC(=O)C[C@H]2C[C@@H]3c4cc(NC(=O)C5CCC5)ccc4O[C@@H]3[C@@H](CO)O2)cc1`, the activity change, negative = inhibition was -1.06% (inactive). On to `CN(C)CC(=O)N1[C@@H](C#N)[C@H](c2ccc(C#CC3CCCCC3)cc2)[C@@H]1CO`, for which the activity change, negative = inhibition is 0.345% (inactive).

Still in this assay, the particulars now being: Clostridioides difficile clinical isolate growth, OD600, 24 h; at 68 µM (top of the series).
With `C[C@@H]1CN([C@@H](C)CO)C(=O)c2cccc(NC(=O)Nc3ccc(C(F)(F)F)cc3)c2O[C@H]1CN(C)S(=O)(=O)c1ccc(Cl)cc1`, the activity change, negative = inhibition was 12.7% (inactive).

Still in this assay, the particulars now being: Clostridioides difficile clinical isolate growth, OD600, 24 h; at 110 µM (top of the series).
As to `O=C(C[C@@H]1CC[C@H]2[C@@H](COC[C@H](O)CN2S(=O)(=O)c2ccc(Cl)cc2)O1)NCc1ccc(Cl)c(Cl)c1`, the activity change, negative = inhibition is 55.9% (inactive).

Still in this assay, the particulars now being: Clostridioides difficile clinical isolate growth, OD600, 24 h; at 120 µM (top of the series).
Turning to `C[C@H]1CN([C@@H](C)CO)S(=O)(=O)c2ccc(C#CC3CCCCC3)cc2O[C@@H]1CN(C)Cc1cccnc1`, the activity change, negative = inhibition was 20.8% (inactive).

In the case of `CNC[C@H]1Oc2ccc(N)cc2CC(=O)N([C@H](C)CO)C[C@H]1C`, the activity change, negative = inhibition is -8.02% (inactive).

In the case of `C[C@@H]1CN([C@@H](C)CO)C(=O)c2cccc(NC(=O)Nc3ccccc3)c2O[C@H]1CN(C)Cc1ccc(Oc2ccccc2)cc1`, the activity change, negative = inhibition was 26.1% (inactive). `CNC[C@H]1Oc2cc(Br)ccc2S(=O)(=O)N([C@@H](C)CO)C[C@H]1C`: the activity change, negative = inhibition was 5.27% (inactive). Take `C[C@H]1CN([C@@H](C)CO)S(=O)(=O)c2ccc(C3=CCCCC3)cc2O[C@@H]1CN(C)Cc1cccnc1`: the activity change, negative = inhibition is 13.2% (inactive). On to `CC(C)C#Cc1ccc2c(c1)O[C@H](CN(C)CC1CCOCC1)[C@H](C)CN([C@H](C)CO)S2(=O)=O`, for which the activity change, negative = inhibition is 10.2% (inactive).

Take `C[C@@H]1CN([C@@H](C)CO)C(=O)c2cccc(NC(=O)Nc3ccc(C(F)(F)F)cc3)c2O[C@H]1CN(C)S(=O)(=O)c1ccc(Cl)cc1`: the activity change, negative = inhibition was 50.7% (inactive). As for `COc1ccccc1CNC(=O)C[C@@H]1C[C@@H]2c3cc(NC(=O)NC4CCCC4)ccc3O[C@@H]2[C@@H](CO)O1`, the activity change, negative = inhibition is 2.23% (inactive). Consider `Cc1ccc(-c2ccc3c(c2)O[C@H](CN(C)Cc2ccncc2)[C@@H](C)CN([C@H](C)CO)S3(=O)=O)cc1`, for which the activity change, negative = inhibition was 22.9% (inactive).

As for `Cc1ccc(S(=O)(=O)N2C[C@@H](O)COC[C@H]3O[C@H](CC(=O)NCc4ccccc4Cl)CC[C@@H]32)cc1`, the activity change, negative = inhibition was 13.4% (inactive). Turning to `COC(=O)C[C@H]1C[C@@H]2c3cc(NC(=O)C4CCC4)ccc3O[C@@H]2[C@@H](CO)O1`, the activity change, negative = inhibition was -6.56% (inactive). With `O=C(N[C@H]1CC[C@H](CCNS(=O)(=O)Cc2ccccc2)O[C@H]1CO)c1cnccn1`, the activity change, negative = inhibition is -2.56% (inactive). For the compound `C[C@H](CO)N1C[C@H](C)[C@H](CN(C)Cc2ccc(-c3ccccc3)cc2)Oc2c(NC(=O)Nc3ccc4c(c3)OCO4)cccc2C1=O`, the activity change, negative = inhibition was 24.3% (inactive). With `C[C@@H]1CN([C@@H](C)CO)S(=O)(=O)c2ccc(/C=C/c3ccccc3)cc2O[C@H]1CN(C)Cc1cccnc1`, the activity change, negative = inhibition is 71.2% (inactive). On to `CNC[C@@H]1Oc2ccc(NC(=O)CCCN(C)C)cc2CC(=O)N([C@@H](C)CO)C[C@H]1C`, for which the activity change, negative = inhibition is -5.36% (inactive). Take `Cc1ccc(S(=O)(=O)N[C@H]2CC[C@@H](CCNS(=O)(=O)Cc3ccccc3)O[C@@H]2CO)cc1`: the activity change, negative = inhibition was -4.91% (inactive). Consider `C[C@H](CO)N1C[C@H](C)[C@@H](CN(C)C(=O)c2ccccc2)OCCCC[C@H](C)Oc2ccc(NC(=O)Nc3cccc4ccccc34)cc2C1=O`, for which the activity change, negative = inhibition was 37.5% (inactive). Still for that read-out and setting: for `C[C@@H]1CCCCO[C@H](CN(C)S(=O)(=O)c2ccc(F)cc2)[C@H](C)CN([C@@H](C)CO)C(=O)c2cc(NC(=O)Nc3cccc4ccccc34)ccc2O1` the value was 22.9% (inactive).

Take `O=S(=O)(Cc1ccccc1)NCC[C@H]1CC[C@H](NS(=O)(=O)c2ccccc2)[C@H](CO)O1`: the activity change, negative = inhibition was -7.57% (inactive). Same read-out and setting: then `CC(C)CC#Cc1ccc2c(c1)O[C@@H](CN(C)Cc1cccnc1)[C@H](C)CN([C@@H](C)CO)S2(=O)=O`, with 29.9% (inactive); and `COc1ccc(NC(=O)Nc2ccc3c(c2)[C@H]2C[C@H](CC(=O)NCc4ccccc4F)O[C@@H](CO)[C@H]2O3)cc1`, with 3.92% (inactive). For `CO[C@H]1CN(C)C(=O)c2cc(NC(=O)c3ccc(Oc4ccccc4)cc3)ccc2OC[C@H](C)NC[C@H]1C`, the activity change, negative = inhibition was 31.6% (inactive). In the case of `C[C@@H]1CN([C@@H](C)CO)S(=O)(=O)c2ccc(/C=C/c3ccccc3)cc2O[C@H]1CN(C)C(=O)Nc1ccc(F)cc1`, the activity change, negative = inhibition was 32.6% (inactive).

Take `COc1ccc(CN(C)C[C@@H]2OCCCC[C@H](C)Oc3ccc(NC(=O)Nc4cccc5ccccc45)cc3C(=O)N([C@@H](C)CO)C[C@H]2C)cc1`: the activity change, negative = inhibition was 42% (inactive). Same read-out and setting: then `C[C@@H]1CN([C@H](C)CO)C(=O)Cc2cc(N(C)C)ccc2O[C@@H]1CN(C)Cc1ccc(-c2ccccc2)cc1`, with 22.5% (inactive).

With `CC(C)CC#Cc1ccc2c(c1)O[C@H](CN(C)Cc1ccccc1F)[C@H](C)CN([C@@H](C)CO)S2(=O)=O`, the activity change, negative = inhibition is 26.2% (inactive). Still for that read-out and setting: for `C/C=C/c1ccc2c(c1)O[C@H](CN(C)CC1CCOCC1)[C@H](C)CN([C@@H](C)CO)S2(=O)=O` the value was -1.64% (inactive); for `O=C(C[C@H]1C[C@@H]2c3cc(NS(=O)(=O)c4ccc(F)cc4)ccc3O[C@@H]2[C@H](CO)O1)NCc1ccc(-c2ccccc2)cc1`, 25.5% (inactive).

For `CC(C)C#Cc1ccc2c(c1)O[C@H](CN(C)CC1CCOCC1)[C@H](C)CN([C@@H](C)CO)S2(=O)=O`, the activity change, negative = inhibition was 4.6% (inactive). Turning to `COc1ccc(S(=O)(=O)Nc2cccc3c2O[C@@H](CN(C)S(=O)(=O)c2c(C)noc2C)[C@H](C)CN([C@H](C)CO)C3=O)cc1`, the activity change, negative = inhibition is -3.81% (inactive). The same measure, in the same setting: then `CC(C)CC#Cc1ccc2c(c1)O[C@@H](CN(C)Cc1ccc3c(c1)OCO3)[C@@H](C)CN([C@H](C)CO)S2(=O)=O`, with 23.6% (inactive). As to `C[C@@H]1CN([C@@H](C)CO)S(=O)(=O)c2ccc(/C=C/c3ccccc3)cc2O[C@H]1CN(C)C(=O)c1ccncc1`, the activity change, negative = inhibition was 14.4% (inactive). As for `C[C@H](CO)N1C[C@H](C)[C@H](CN(C)Cc2ccc(Oc3ccccc3)cc2)Oc2ccc(NC(=O)C3CC3)cc2CC1=O`, the activity change, negative = inhibition was 12.9% (inactive). As to `C[C@@H]1CN([C@H](C)CO)C(=O)c2cc(NC(=O)Nc3cccc4ccccc34)ccc2O[C@@H](C)CCCCO[C@H]1CN(C)S(=O)(=O)c1ccc(F)cc1`, the activity change, negative = inhibition was 38% (inactive). In the case of `CO[C@H]1CN(C)C(=O)c2ccc(NC(=O)c3nc4ccccc4s3)cc2OC[C@H](C)NC[C@@H]1C`, the activity change, negative = inhibition is -6.99% (inactive). Regarding `C[C@H]1CN([C@@H](C)CO)C(=O)c2cccc(NC(=O)Nc3ccccc3)c2O[C@@H]1CN(C)Cc1ccc(Oc2ccccc2)cc1`, the activity change, negative = inhibition is 27.9% (inactive). Consider `CNC[C@H]1Oc2ccc(NC(=O)C3CC3)cc2CC(=O)N([C@H](C)CO)C[C@H]1C`, for which the activity change, negative = inhibition is -1.55% (inactive). For the compound `CO[C@H]1CN(C)C(=O)c2ccc(NC(=O)c3ccc(-c4ccccc4)cc3)cc2OC[C@H](C)NC[C@H]1C`, the activity change, negative = inhibition was 4.8% (inactive).

The assay is the same for the next values; noted with them: Clostridioides difficile clinical isolate growth, OD600, 24 h; at 135 µM (top of the series).
`C[C@@H]1CN([C@H](C)CO)C(=O)Cc2cc(NC(=O)CCC(F)(F)F)ccc2O[C@H]1CN(C)Cc1ccc(-c2ccccc2)cc1`: the activity change, negative = inhibition is 15.9% (inactive). Take `C[C@@H]1CN([C@H](C)CO)C(=O)Cc2cc(NC(=O)C3CC3)ccc2O[C@@H]1CN(C)Cc1ccc(C(F)(F)F)cc1`: the activity change, negative = inhibition is 18% (inactive).

Turning to `C[C@@H]1CN([C@@H](C)CO)C(=O)Cc2cc(NC(=O)C3CC3)ccc2O[C@H]1CN(C)Cc1ccc(Oc2ccccc2)cc1`, the activity change, negative = inhibition was 48% (inactive).

With `C[C@@H]1CN([C@H](C)CO)C(=O)Cc2cc(NS(C)(=O)=O)ccc2O[C@@H]1CN(C)Cc1ccc(-c2ccccc2)cc1`, the activity change, negative = inhibition was 20% (inactive). For the compound `CO[C@H]1CN(C)C(=O)c2cc(NC(=O)c3nc4ccccc4s3)ccc2OC[C@H](C)N(Cc2ccncc2)C[C@H]1C`, the activity change, negative = inhibition is 20.9% (inactive). On to `C[C@H](CO)N1C[C@H](C)[C@H](CN(C)Cc2ccc(-c3ccccc3)cc2)Oc2ccc(NC(=O)C3CC3)cc2CC1=O`, for which the activity change, negative = inhibition is 13.1% (inactive). On to `C[C@@H]1CN([C@@H](C)CO)C(=O)Cc2cc(NS(C)(=O)=O)ccc2O[C@@H]1CN(C)Cc1ccc(-c2ccccc2)cc1`, for which the activity change, negative = inhibition is 16.9% (inactive). On the same count and under the same terms, then `Cc1ccc(S(=O)(=O)N[C@H]2CC[C@@H](CCNS(=O)(=O)Cc3ccccc3)O[C@H]2CO)cc1`, with 3.07% (inactive); and `O=C(C[C@H]1C[C@@H]2c3cc(NC(=O)Nc4ccccc4)ccc3O[C@@H]2[C@H](CO)O1)NC1CCCC1`, with -0.545% (inactive). `O=C(C[C@H]1C[C@@H]2c3cc(NC(=O)C4CCC4)ccc3O[C@@H]2[C@H](CO)O1)NCc1ccc(Cl)cc1`: the activity change, negative = inhibition is 4.22% (inactive).

As for `O=C(C[C@@H]1C[C@H]2c3cc(NC(=O)C4CCC4)ccc3O[C@H]2[C@@H](CO)O1)NCc1ccc(Cl)cc1`, the activity change, negative = inhibition is 6.13% (inactive). For `C[C@@H]1CN([C@H](C)CO)C(=O)Cc2cc(NC(=O)Nc3ccccc3)ccc2O[C@@H]1CN(C)Cc1ccc(-c2ccccc2)cc1`, the activity change, negative = inhibition was 12.7% (inactive). On to `O=C(N[C@H]1CC[C@H](CCNS(=O)(=O)Cc2ccccc2)O[C@H]1CO)c1ccc2c(c1)OCO2`, for which the activity change, negative = inhibition is -7.24% (inactive).

These data come from PubChem BioAssay AID1259246 (Broad Institute, 2017).
